{"source": "ChEMBL document CHEMBL3243918", "about": "“Synthesis and adrenergic beta-blocking activity of some 1,3-benzodioxole derivatives” (J Med Chem, 1977)", "key": {"Cavia porcellus [1]": {"test_system": "Cavia porcellus", "experiment": "Hypotensive activity at guinea pig assessed as decrease in blood pressure at 100 mg/kg, po after 1 hr", "format": "functional, organism-based", "design": "dose 100 mg/kg"}, "Cavia porcellus [2]": {"test_system": "Cavia porcellus", "experiment": "Toxicity in guinea pig assessed as depression in heart beating rate at 50 mg/kg, po relative to control", "format": "organism-based", "design": "dose 50 mg/kg, route oral", "details": "in vivo"}, "Cavia porcellus [3]": {"test_system": "Cavia porcellus", "experiment": "Hypotensive activity at guinea pig assessed as decrease in blood pressure at 100 mg/kg, po after 3 hrs", "format": "functional, organism-based", "design": "dose 100 mg/kg"}, "[4]": {"experiment": "Antagonist activity at guinea pig atrial beta adrenergic receptor assessed as isometric contractions by force displacement transducer", "format": "tissue-based, Cavia porcellus, Cardiac atrium"}, "Cavia porcellus [5]": {"test_system": "Cavia porcellus", "experiment": "Hypotensive activity at guinea pig assessed as decrease in blood pressure at 100 mg/kg, po after 5 hrs", "format": "functional, organism-based", "design": "dose 100 mg/kg"}, "Cavia porcellus [6]": {"species": "Cavia porcellus", "experiment": "Antagonist activity at guinea pig atrial beta adrenergic receptor assessed as isometric contractions at 5 x 10^-5 M by force displacement transducer", "format": "tissue-based", "details": "Cardiac atrium"}, "Cavia porcellus [7]": {"test_system": "Cavia porcellus", "experiment": "Hypotensive activity at guinea pig assessed as decrease in blood pressure at 50 mg/kg, po after 5 hrs (reference value: 112 +/- 2.6 to 122 +/- 2.7 mmHg)", "format": "functional"}, "Cavia porcellus [8]": {"test_system": "Cavia porcellus", "experiment": "Hypotensive activity at guinea pig assessed as decrease in blood pressure at 50 mg/kg, po after 3 hrs (reference value: 112 +/- 2.6 to 122 +/- 2.7 mmHg)", "format": "functional"}, "Cavia porcellus [9]": {"test_system": "Cavia porcellus", "experiment": "Hypotensive activity at guinea pig assessed as decrease in blood pressure at 50 mg/kg, po after 1 hr (reference value: 112 +/- 2.6 to 122 +/- 2.7 mmHg)", "format": "functional"}, "Cavia porcellus [10]": {"test_system": "Cavia porcellus", "experiment": "Toxicity in guinea pig assessed as increase in heart beating rate at 50 mg/kg, po", "format": "organism-based", "design": "dose 50 mg/kg, route oral", "details": "in vivo"}}, "note": "Calls of active or inactive are those of the source. The rule behind the calls is not given here."}
{"compound": "CNCC(O)COC(=O)c1ccc2c(c1)OCO2.O=C(O)C(=O)O", "note": "(stereo not given)", "values": [{"measurement": "Activity", "setting": "Cavia porcellus [1]", "result": "inactive"}, {"measurement": "Activity", "setting": "Cavia porcellus [2]", "result": "< 10", "unit": "%"}, {"measurement": "Activity", "setting": "Cavia porcellus [3]", "result": "inactive"}, {"measurement": "pA2", "setting": "[4]", "result": 5.3}, {"measurement": "Activity", "setting": "Cavia porcellus [5]", "result": "inactive"}]}
{"compound": "N=C(N)NCCc1ccc2c(c1)OCO2", "values": [{"measurement": "Activity", "setting": "Cavia porcellus [1]", "result": "inactive"}, {"measurement": "Activity", "setting": "Cavia porcellus [6]", "result": "inactive"}, {"measurement": "Activity", "setting": "Cavia porcellus [3]", "result": "inactive"}, {"measurement": "Activity", "setting": "Cavia porcellus [5]", "result": "inactive"}]}
{"compound": "OC(CNC1=NCCN1)c1ccc2c(c1)OCO2", "note": "(stereo not given)", "values": [{"measurement": "Activity", "setting": "Cavia porcellus [1]", "result": "inactive"}, {"measurement": "Activity", "setting": "Cavia porcellus [6]", "result": "inactive"}, {"measurement": "Activity", "setting": "Cavia porcellus [3]", "result": "inactive"}, {"measurement": "Activity", "setting": "Cavia porcellus [5]", "result": "inactive"}]}
{"compound": "c1cc2c(cc1CCNC1=NCCN1)OCO2", "values": [{"measurement": "Activity", "setting": "Cavia porcellus [1]", "result": "inactive"}, {"measurement": "Activity", "setting": "Cavia porcellus [6]", "result": "inactive"}, {"measurement": "Activity", "setting": "Cavia porcellus [3]", "result": "inactive"}, {"measurement": "Activity", "setting": "Cavia porcellus [5]", "result": "inactive"}]}
{"compound": "CC(C)(C)NCC(O)c1ccc2c(c1)OCO2.Cl", "note": "(stereo not given)", "values": [{"measurement": "Activity", "setting": "Cavia porcellus [7]", "result": 77, "unit": "mmHg"}, {"measurement": "Activity", "setting": "Cavia porcellus [8]", "result": 77, "unit": "mmHg"}, {"measurement": "Activity", "setting": "Cavia porcellus [9]", "result": 83, "unit": "mmHg"}, {"measurement": "pA2", "setting": "[4]", "result": 6.5}]}
{"compound": "NNc1nncc2ccccc12", "values": [{"measurement": "Activity", "setting": "Cavia porcellus [6]", "result": "inactive"}]}
{"compound": "CC(C)NCC(O)c1ccc(NS(C)(=O)=O)cc1", "note": "(stereo not given) [SOTALOL]", "values": [{"measurement": "Activity", "setting": "Cavia porcellus [7]", "result": 107, "unit": "mmHg"}, {"measurement": "Activity", "setting": "Cavia porcellus [8]", "result": 108, "unit": "mmHg"}, {"measurement": "Activity", "setting": "Cavia porcellus [9]", "result": 112, "unit": "mmHg"}, {"measurement": "pA2", "setting": "[4]", "result": 6.8}]}
{"compound": "CC(C)NCC(O)COC(=O)c1ccc2c(c1)OCO2.Cl", "note": "(stereo not given)", "values": [{"measurement": "Activity", "setting": "Cavia porcellus [1]", "result": "inactive"}, {"measurement": "Activity", "setting": "Cavia porcellus [3]", "result": "inactive"}, {"measurement": "pA2", "setting": "[4]", "result": 6.9}, {"measurement": "Activity", "setting": "Cavia porcellus [5]", "result": "inactive"}]}
{"compound": "CC(C)NCC(O)COc1cccc2ccccc12", "note": "(stereo not given) [PROPRANOLOL]", "values": [{"measurement": "Activity", "setting": "Cavia porcellus [7]", "result": 117, "unit": "mmHg"}, {"measurement": "Activity", "setting": "Cavia porcellus [8]", "result": 119, "unit": "mmHg"}, {"measurement": "Activity", "setting": "Cavia porcellus [9]", "result": 141, "unit": "mmHg"}]}
{"compound": "CC(C)NC(C)C(O)c1ccc2c(c1)OCO2.Cl", "note": "(stereo not given)", "values": [{"measurement": "Activity", "setting": "Cavia porcellus [7]", "result": 94, "unit": "mmHg"}, {"measurement": "Activity", "setting": "Cavia porcellus [6]", "result": "inactive"}, {"measurement": "Activity", "setting": "Cavia porcellus [8]", "result": 91, "unit": "mmHg"}, {"measurement": "Activity", "setting": "Cavia porcellus [2]", "result": "< 10", "unit": "%"}, {"measurement": "Activity", "setting": "Cavia porcellus [9]", "result": 92, "unit": "mmHg"}]}
{"compound": "CC(C)NCC(O)/C=C/c1ccc2c(c1)OCO2", "note": "(stereo not given)", "values": [{"measurement": "Activity", "setting": "Cavia porcellus [1]", "result": "inactive"}, {"measurement": "Activity", "setting": "Cavia porcellus [6]", "result": "inactive"}, {"measurement": "Activity", "setting": "Cavia porcellus [3]", "result": "inactive"}, {"measurement": "Activity", "setting": "Cavia porcellus [5]", "result": "inactive"}]}
{"compound": "CC(C)NCC(O)c1ccc2c(c1)OCO2.Cl", "note": "(stereo not given)", "values": [{"measurement": "Activity", "setting": "Cavia porcellus [7]", "result": 87, "unit": "mmHg"}, {"measurement": "Activity", "setting": "Cavia porcellus [10]", "result": 25, "unit": "%"}, {"measurement": "Activity", "setting": "Cavia porcellus [8]", "result": 84, "unit": "mmHg"}, {"measurement": "Activity", "setting": "Cavia porcellus [9]", "result": 97, "unit": "mmHg"}, {"measurement": "pA2", "setting": "[4]", "result": 6.2}]}
{"compound": "N=C(N)NCC(O)c1ccc2c(c1)OCO2", "note": "(stereo not given)", "values": [{"measurement": "Activity", "setting": "Cavia porcellus [1]", "result": "inactive"}, {"measurement": "Activity", "setting": "Cavia porcellus [6]", "result": "inactive"}, {"measurement": "Activity", "setting": "Cavia porcellus [3]", "result": "inactive"}, {"measurement": "Activity", "setting": "Cavia porcellus [5]", "result": "inactive"}]}
{"compound": "CC(C)(C)NCC(O)COC(=O)c1ccc2c(c1)OCO2.Cl", "note": "(stereo not given)", "values": [{"measurement": "Activity", "setting": "Cavia porcellus [1]", "result": "inactive"}, {"measurement": "Activity", "setting": "Cavia porcellus [3]", "result": "inactive"}, {"measurement": "pA2", "setting": "[4]", "result": 6.9}, {"measurement": "Activity", "setting": "Cavia porcellus [5]", "result": "inactive"}]}
